{
  "source": "patent US4503055A",
  "about": "“Derivatives of [4-(piperazin-1-yl-phenyloxymethyl)-1,3-dioxolan-2-ylmethyl]-1H-imidazol es and 1H-1,2,4-triazoles” (Janssen Pharmaceutica, N.V., priority 1981, dated 1985)",
  "key": {"Candida albicans [1]": {"system": "Candida albicans", "test": "Activity against vaginal candidosis in rats", "assay_type": "in vivo, Female Wistar rats", "conditions": "336 h, oral, once a day for two days from day of infection, active at the 14th day after infection, read-out: Vaginal candidosis in rats: lowest effective dose in mg/kg orally", "experimental": "Female Wistar rats of ±100 g body weight are used. They are ovariectomized and hysterectomized and after three weeks of recovery, 100 μg of oestradiol undecylate in sesame oil is given subcutaneously once a week for 3 consecutive weeks. The thus induced pseudooestrus is controlled by microscopic examination of vaginal smears. Food and water are left available ad libitum. The rats are infected intravaginally with 8.10^5 cells of Candida albicans, grown on Sabouraud broth for 48 hours at 37° C. and diluted with saline. The date of infection varies from day +25 to day +32 after surgical intervention, depending on the appearance of signs of induced pseudooestrus. The drugs under investigation are administered orally once a day for two days starting from the day of infection. For each experiment there are placebo treated controls. The results are assessed by taking vaginal smears with sterile swabs on several days after the infection. The swabs are put into Sabouraud broth in petri-dishes and incubated for 48 hours at 37° C. If no growth of Candida albicans occurs, i.e., when the animals are negative at the end of the experiment, this is due to drug administration because it never happens in placebo treated controls. The table below gives the lowest oral dose of the drug under investigation which is found active at the 14th day after infection."}, "Candida albicans [2]": {"system": "Candida albicans", "test": "Activity against crop candidosis in turkeys", "assay_type": "in vivo", "conditions": "medicated feed for 13 consecutive days from day of infection, crops of 50% of animals completely negative for Candida albicans", "experimental": "Turkeys of 14 days old are infected in the crop with 4.10^6 Candida albicans cells, grown on Sabouraud broth for 48 hours at 37° C. and diluted with saline. The volume of the inoculum is 1 ml. The drugs under investigation are premixed in 500 mg of lacton and thereafter admixed in 1000 g of meal without any additives. The concentration of the drug under investigation in the meal is expressed in mg/kg. The animals are given the medicated feed for 13 consecutive days starting on the day of infection. At the end of the experiment all animals are sacrificed. At autopsy the crops are removed, emptied and grinded in an ultra-turrax mixer in 15 ml of sterile saline. Colony counting is done on Sabouraud agar and the results given in the table represents the ED50, i.e., the dose of the drug whereby the crops of 50% of the animals are completely negative for Candida albicans."}},
  "data": [
    {"compound": "Cc1ccccc1NC(=O)CN1CCN(c2ccc(OC[C@H]3CO[C@](Cn4ccnc4)(c4ccc(Cl)cc4Cl)O3)cc2)CC1", "note": "(relative stereo)", "values": [
      {"measurement": "minimal effective dose", "setting": "Candida albicans [1]", "value": 2.5, "unit": "mg/kg"},
      {"measurement": "Crop candidosis in turkeys: ED50 in mg/kg feed", "setting": "Candida albicans [2]", "value": 16, "unit": "mg/kg feed"}
    ]},
    {"compound": "O=C(C=Cc1ccc(Cl)cc1)N1CCN(c2ccc(OC[C@H]3CO[C@](Cn4cncn4)(c4ccc(Cl)cc4Cl)O3)cc2)CC1", "values": [
      {"measurement": "Crop candidosis in turkeys: ED50 in mg/kg feed", "setting": "Candida albicans [2]", "value": 16, "unit": "mg/kg feed"}
    ]},
    {"compound": "Cc1ccc(S(=O)(=O)N2CCN(c3ccc(OC[C@H]4CO[C@](Cn5cncn5)(c5ccc(Cl)cc5Cl)O4)cc3)CC2)cc1", "note": "(relative stereo)", "values": [
      {"measurement": "Crop candidosis in turkeys: ED50 in mg/kg feed", "setting": "Candida albicans [2]", "value": "< 31", "unit": "mg/kg feed"}
    ]},
    {"compound": "O=C(CN1CCN(c2ccc(OC[C@H]3CO[C@](Cn4ccnc4)(c4ccc(Cl)cc4Cl)O3)cc2)CC1)Nc1c(Cl)cccc1Cl", "note": "(relative stereo)", "values": [
      {"measurement": "minimal effective dose", "setting": "Candida albicans [1]", "value": 2.5, "unit": "mg/kg"},
      {"measurement": "Crop candidosis in turkeys: ED50 in mg/kg feed", "setting": "Candida albicans [2]", "value": 31, "unit": "mg/kg feed"}
    ]},
    {"compound": "CCOC(=O)COC(=O)N1CCN(c2ccc(OC[C@H]3CO[C@](Cn4ccnc4)(c4ccc(Cl)cc4Cl)O3)cc2)CC1", "note": "(relative stereo)", "values": [
      {"measurement": "minimal effective dose", "setting": "Candida albicans [1]", "value": 2.5, "unit": "mg/kg"},
      {"measurement": "Crop candidosis in turkeys: ED50 in mg/kg feed", "setting": "Candida albicans [2]", "value": 31, "unit": "mg/kg feed"}
    ]},
    {"compound": "Clc1ccc(CN2CCN(c3ccc(OC[C@H]4CO[C@](Cn5ccnc5)(c5ccc(Cl)cc5Cl)O4)cc3)CC2)cc1", "note": "(relative stereo)", "values": [
      {"measurement": "Crop candidosis in turkeys: ED50 in mg/kg feed", "setting": "Candida albicans [2]", "value": "< 31", "unit": "mg/kg feed"}
    ]},
    {"compound": "Cc1ccc(NC(=O)CN2CCN(c3ccc(OC[C@H]4CO[C@](Cn5ccnc5)(c5ccc(Cl)cc5Cl)O4)cc3)CC2)cc1", "note": "(relative stereo)", "values": [
      {"measurement": "Crop candidosis in turkeys: ED50 in mg/kg feed", "setting": "Candida albicans [2]", "value": 16, "unit": "mg/kg feed"}
    ]}
  ]
}
